Laboratory results reported in patent US4777049A, “Constant release system with pulsed release” (priority 1987, dated 1988).
≈ marks a conversion by molar mass, not a printed value. Read-outs that look alike come from different tables or passages of the source.

Assays:
[1] = tested on: gonadotropin secretion; conditions: Drugs, Vol. 23, 207-226, 1982, cited from earlier work
[2] = cited from earlier work
[3] = physchem

## C[C@]12CC[C@@H]3c4ccc(O)cc4CC[C@H]3[C@@H]1CC[C@@H]2O [estradiol]
[1]; high pulsed doses
  effect on gonadotropin secretion: stimulates the ovulating surge
[1]; low pulsed dose
  effect on gonadotropin secretion: inhibits

## CC[C@H](C)[C@@H]1NC(=O)[C@H](Cc2ccc(O)cc2)NC(=O)[C@@H](N)CSSC[C@@H](C(=O)N2CCC[C@H]2C(=O)N[C@@H](CC(C)C)C(=O)NCC(N)=O)NC(=O)[C@H](CC(N)=O)NC(=O)[C@H](CCC(N)=O)NC1=O [oxytocin]
[2]; induction of labor
  medical effect of pulsed treatment: beneficial medical effect

## CC(C)(C)NCC(O)c1ccc(O)c(CO)c1 (centres unmarked) [salbutamol]
[3]; distilled water, water
  solubility: 275 mg/mL (≈ 1150 mM)
[3]; saturated sodium chloride solution
  solubility: 16 mg/mL (≈ 66.9 mM)

## C[C@H]1C[C@@H]2[C@H]([C@@H](O)C[C@@]3(C)[C@H]2CC[C@]3(O)C(=O)CO)[C@@]2(C)C=CC(=O)C=C12 [methylprednisolone]
[2]; collagenic and progressing glomerulonephritis
  medical effect of pulsed treatment: beneficial medical effect

## CO[C@H]1/C=C/O[C@@]2(C)Oc3c(C)c(O)c4c(O)c(c(/C=N/N5CCN(C)CC5)c(O)c4c3C2=O)NC(=O)/C(C)=C\C=C\[C@H](C)[C@H](O)[C@@H](C)[C@@H](O)[C@@H](C)[C@H](OC(C)=O)[C@@H]1C [rifampicin]
[2]; leprosy
  medical effect of pulsed treatment: beneficial medical effect

## insulin
[2]; control of hyperglycemia
  medical effect of pulsed treatment: beneficial medical effect
